The results in this text go back to patent US20220388919A1, “UREA-BASED BLEND COMPOSITION AND METHOD FOR THE MANUFACTURE THEREOF” (Yara International ASA, priority 2019, published 2022).

The structures appear in SMILES notation.

The data set can be described thus: nBTPT recovered after storage in bags (HPLC, CEN 15688-2007). Type of data set: physicochemical. The following applies: bagged conditions without the presence of a head space (exclusion of moisture and atmospheric gasses). Here is the method: For lab scale experiments, 1.2 kg of solid UAS fertilizer material was added to a lab scale drum. In a next step, the nBTPT/stabilizer material was slowly added. A residence time of 10 minutes was applied, and the rotating speed of the drum was consequently the same in each experiment. In case a moisture-repellent coating was added, a nebulizer was used and depending on the order of addition, the moisture-repellent coating was added before or after addition of the nBTPT material. Before use, the moisture-repellent coating was preheated to 80° C. Larger scale experiments with amounts up to 40 kg of fertilizer material were performed in a concrete mixer.
Optionally, a zinc sulphate, anhydrous zinc sulphate or monohydrate zinc sulphate, was coated on the particles (0.46 weight %). […] Product samples were taken at different times from a bag and the amount of nBTPT still present was measured by HPLC according to the procedure CEN 15688-2007, the results are presented in FIG. 1. […]
Urea particles containing 46 weight % of nitrogen was coated with 0.046 weight % of nBTPT, as urease inhibitor, and an inorganic stabilizer, magnesium oxide (0.023 weight %). […] Product samples were taken at different times and the amount of nBTPT still present was measured by HPLC according to the procedure CEN 15688-2007, the results are presented in FIG. 5. […]

For the compound `CCCCNP(N)(N)=S` [nBTPT, N-(n-butyl) thiophosphoric triamide], the “stability of the urease inhibitor” value is listed as “further increased”.
